According to US20050249805A1, “Compositions and methods for treating hepatitis C virus (HCV) infection” (priority 2003, published 2005):

Assays:
carboxylesterase [1] = assay: Effect of enzyme inhibitors on hydrolysis of III in human liver microsomes; assay type: biochemical; details: for effect on hydrolysis of III: PMSF 20-500 uM, Proadifen 5-100 uM; for inhibition of hydrolysis of III: highest concentrations (NaF 500 mM, BNPP 500 uM)
Description: Human male liver microsomes (Xenotech LLC, Kansas City, CS) were incubated with III in presence of increasing concentrations of known inhibitors of carboxylesterase, protease, and cytochrome P450 enzymes, followed by LC/MS/MS analysis of a parent compound and a primary metabolite aniline. […] Incubations were carried out at 37° C., at final concentrations of 0.1 M potassium phosphate buffer/0.1 mM EDTA, pH 7.4, specified concentration of inhibitor, 2 μM substrate, 0.5 mg/mL microsomal protein, 0.1% DMSO, 0.5% acetonitrile, in absence of NADPH. Incubations were started with a substrate, following 10 min preincubation of microsomal reaction mixture with inhibitors at 37° C. Reactions were stopped at specified time points with acetonitrile/methanol/DMSO (50:25:25) containing an internal standard.

plasma blood esterases = assay: Stabilization of III in mouse blood by carboxylesterase inhibitors; assay type: in vitro ADME
Description: Heparinized fresh mouse blood (1.6 mL) from […] was added to Vacutainer Tubes: Cat # 367587, lot 2079758, approx. 2 mL volume (3 mg NaF+6 mg disodium EDTA/tube) and spiked with III at 20 ng/mL blood, with concentration of NaF in blood of […]. Samples were incubated in duplicate at 37° C. up to 2 h. Control samples were incubated in eppendorf tubes without sodium fluoride. Blood concentrations of III and its aniline metabolite were assayed by LC/MS/MS by procedure described in Example 6.

[2] = target: T1, butyrylcholinesterase (BuChE: EC 3.1.1.8) (Equus caballus, UniProt P81908); assay: Hydrolysis of III by purified butyrylcholinesterase; assay type: biochemical, equine
T1 construct: butyrylcholine esterase, equine serum (pseudocholinesterase EC 3.1.1.8, Sigma C1057); purchased Sigma C1057; host or cells: equine serum
T1 sequence (P81908 whole entry): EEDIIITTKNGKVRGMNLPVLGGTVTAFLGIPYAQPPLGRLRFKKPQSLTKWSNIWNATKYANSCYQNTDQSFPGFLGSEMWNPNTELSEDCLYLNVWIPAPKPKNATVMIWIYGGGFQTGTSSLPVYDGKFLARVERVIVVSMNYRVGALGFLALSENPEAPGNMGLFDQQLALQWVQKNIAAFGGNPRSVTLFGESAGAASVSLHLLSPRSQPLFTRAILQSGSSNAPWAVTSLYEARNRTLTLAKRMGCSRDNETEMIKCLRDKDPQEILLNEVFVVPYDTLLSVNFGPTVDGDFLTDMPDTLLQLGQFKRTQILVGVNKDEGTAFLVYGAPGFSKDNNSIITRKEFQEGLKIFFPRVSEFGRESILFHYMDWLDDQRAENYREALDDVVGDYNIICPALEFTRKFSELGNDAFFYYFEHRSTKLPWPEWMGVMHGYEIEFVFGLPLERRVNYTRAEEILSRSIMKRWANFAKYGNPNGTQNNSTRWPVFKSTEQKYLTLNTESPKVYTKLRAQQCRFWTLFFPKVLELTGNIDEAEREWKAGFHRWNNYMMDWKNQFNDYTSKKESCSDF
Description: (§1) The following purified enzymes were used for assays: carboxylesterase from porcine liver (EC 3.1.1.1, Sigma E3019); butyrylcholine esterase, equine serum (pseudocholinesterase EC 3.1.1.8, Sigma C1057); and acetylcholine esterase from electrical eel (EC 3.1.1.7, Sigma C2629).
(§2) Purified enzyme preparations (0.2-2.0 units/mL) were incubated 0-30 min at 37° C. in 0.1 M potassium phosphate buffer, 0.1 mM EDTA, pH 7.4 and 0.5 mg/mL of bovine serum albumin. The substrate was delivered in 0.02% DMSO and 0.6% acetonitrile. Incubations were performed for 0-30 min at 37° C., separately for each time point. The reactions were terminated by precipitation with acetonitrile/ethanol/DMSO mixture, followed by filtering and LC/MS/MS analysis. […] Initial rates of substrate disappearance or product appearance were calculated by linear regression of 5-6 separate incubations.

[3] = mouse, in vivo, po
Description: (§4) Balb/c male mice were predosed intraperitoneally with 100 mg/kg (20 mg/mL) of bis(p-nitrophenyl) phosphate (BNPP) in ethanol/polyethylene glycol (PEG400) 10:40 v/v or the vehicle, one hour before dosing with III at 1 mg/kg (1 mg/mL) by intravenous bolus in PEG400, or at 30 mg/kg (5 mL/kg) orally in TGPS/PEG400/PG/PBS.
(§5) Blood samples were collected into heparinized Microtainer tubes, spiked with 30% BNPP solution in ethanol, 10 μl/mL blood. Livers were snap frozen in liquid nitrogen. Samples were stored at −80° C. until analyzed by LC/MS/MS procedure, as described below.
(§6) The MRM mode of detection was used for LC/MS/MS analysis. Test compounds were extracted from plasma by direct protein precipitation with a mixture of acetonitrile, ethanol and dimethyl sulfoxide (DMSO) (2:1:1 v/v) and internal standard. Following vortexing and centrifugation, 10 μL of the extract was analyzed by LC-MS/MS.
(§7) Liver homogenate (20% volume in DMSO: water) was prepared using a Polytron homogenizer. Test compounds were extracted from 100 μL of the homogenized mixture as described for plasma and analyzed by LC/MS/MS.
(§8) LC/MS/MS was performed on PE-Sciex API3000 triple quadrupole mass spectrometer, using Betasil C8 column (3×50 mm, 3 μm), with mobile phase A: 0.1% formic acid in water, and B: 0.1% formic acid in acetonitrile. Multiple reaction monitoring (MRM) in the positive ionization mode and Analyst 1.1 software was used for quantitation and data acquisition.

[4] = Metabolic stability in human liver microsomes; assay type: in vitro ADME
Description: (§3) Liver microsomes prepared from human (male and/or female) or Sprague-Dawley rat (female) (Xenotech LLC, Kansas City, CS), were incubated with compound II (FIG. 3) or III (FIG. 4), followed by LC/MS/MS analysis of a parent compound and a primary metabolite aniline. Incubations were carried out at 37° C., at final concentrations of 0.1 M potassium phosphate buffer/0.1 mM EDTA, pH 7.4, 1 μM substrate, 0.5 mg/mL microsomal protein, 0.01% DMSO, 0.3% acetonitrile, in presence or absence of 1 mM NADPH. Reactions were stopped at specified time points with acetonitrile/methanol/DMSO (50:25:25) containing an internal standard.

[5] = target: T2, acetylcholinesterase (AchE: EC 3.1.1.7) (Electrophorus electricus, UniProt O42275); assay: Hydrolysis of III by purified acetylcholinesterase; assay type: biochemical, electrical eel
T2 construct: acetylcholine esterase from electrical eel (EC 3.1.1.7, Sigma C2629); purchased Sigma C2629; host or cells: electric eel
T2 sequence (O42275 24-633): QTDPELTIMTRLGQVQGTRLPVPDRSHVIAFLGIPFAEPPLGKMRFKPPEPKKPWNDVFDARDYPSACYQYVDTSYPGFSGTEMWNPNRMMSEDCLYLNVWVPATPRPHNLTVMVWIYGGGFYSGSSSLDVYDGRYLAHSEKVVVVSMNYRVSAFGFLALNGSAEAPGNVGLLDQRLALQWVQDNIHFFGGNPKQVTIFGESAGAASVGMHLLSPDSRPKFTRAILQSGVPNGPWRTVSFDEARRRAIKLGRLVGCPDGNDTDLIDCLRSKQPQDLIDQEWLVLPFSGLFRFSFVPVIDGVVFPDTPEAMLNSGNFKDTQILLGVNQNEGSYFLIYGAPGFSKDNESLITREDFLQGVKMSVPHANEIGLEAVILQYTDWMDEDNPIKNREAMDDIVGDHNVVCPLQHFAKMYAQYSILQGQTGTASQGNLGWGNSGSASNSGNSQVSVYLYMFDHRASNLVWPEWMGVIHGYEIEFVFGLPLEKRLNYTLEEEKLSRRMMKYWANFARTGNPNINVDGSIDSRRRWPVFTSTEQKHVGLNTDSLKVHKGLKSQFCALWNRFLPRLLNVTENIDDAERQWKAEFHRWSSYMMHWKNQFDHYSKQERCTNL
Description: as §1, §2

carboxylesterase [6] = assay: Hydrolysis of Compound III in human small intestinal microsomes, effect of BNPP; assay type: in vitro ADME
[7] = Hydrolysis of III in liver microsomes of several species; assay type: in vitro ADME, human, monkey, dog, rabbit, rat, mouse; details: rates per mg protein vary with species
Description: FIG. 4A and FIG. 4B show the stability of […] when incubated in presence of microsomes prepared from human liver (FIG. 4A) or rat liver (FIG. 4B).

carboxylesterase [8] = assay: Hydrolysis of Compound III in human colon microsomes, effect of BNPP; assay type: in vitro ADME
[9] = tested on: pig liver carboxylesterase (EC 3.1.1.1); assay: Hydrolysis of III by purified pig liver carboxylesterase; assay type: biochemical, porcine; details: enzyme concentration dependent
Description: as §1, §2

[10] = Effect of BNPP pretreatment on exposure of III in mice; details: mice pretreated with BNPP vs untreated
Description: as §4, §5, §6, §7, §8

carboxylesterase [11] = assay: IC50 of carboxylesterase inhibitor (reduction in metabolic conversion of anti-HCV compound); assay type: biochemical
Text: The suitability of a carboxylesterase inhibitor may be confirmed by the guidance provided herein and by methods well known in the art. In one embodiment, in vitro systems may be used. For example, body fluids (e.g., blood), tissue homogenates, or microsomal preparations from tissues (e.g., liver, intestine, etc.) are contacted with the anti-HCV compound in presence or absence of varying concentrations of inhibitor. Decrease in substrate concentration and/or accumulation of metabolic product (e.g., aniline metabolite) are measured by techniques that include, by way of example and not limitation, LC/MS/MS, GC/MS and/or HPLC. These initial determinations can provide an IC50 of the carboxylesterase inhibitor sufficient to affect biotransformation of the anti-HCV compounds. Moroever, use of purified carboxylesterase enzymes, cDNA expressed enzymes, cells transfected with cloned carboxylesterase genes, etc., can be used to identify the specific enzymes responsible for the biotransformation.
Generally, an inhibitor plasma concentration of 5 μM or less is a reasonable IC50 for in vivo applications.

[12] = Metabolic stability in rat liver microsomes; assay type: in vitro ADME, Sprague-Dawley rat; details: rat liver microsomes (FIG. 4B)
Description: as §3

[13] = In vivo metabolite profile of 14C-labeled II in rats; set-up: species or system Sprague Dawley rats; details: intravenous administration, HPLC
Description: Following administration of the compound to rats, plasma and liver were analyzed by HPLC for drug related metabolites.
Male Sprague Dawley rats were given either a single 1 mg/kg (1 mL/kg) bolus intravenous dose in 70% polyethylene glycol (PEG) 400/30% saline via a tail vein, or a single 1 mg/kg (2 mL/kg) oral dose in 4% polysorbate 80/96% saline of ^14C-labeled anti-HCV II, with radioactive dose of about 30 μCi per animal.
Groups of rats (n=2/dose route/time point) were sacrificed at specified times from 0 to 3 h after dosing. Heparinized plasma and liver were harvested and stored at −70° C. until analyzed. The plasma was assayed by liquid scintillation counting (LSC) in Beckman LS-6000LL Liquid Scintillation Counter.
Livers were homogenized in deionized water, combusted and analyzed by LSC. Portion of the homogenate was extracted by sonication with acetonitrile, centrifuged, and subjected to radioprofiling of supernatant by the Liquid Chromatography with Accurate Radioisotope Counting (LC-ARC). Agilent Series 1100 with Packard Radiomatic 150 radioactivity detector was used for analysis. Waters Spherisorb ODS1, 5 μm, 250×4.6 mm column was used, with mobile phase A: water/acetic acid/ammonium hydroxide (2000:20:20, v/v/v), B: acetonitrile. The radioactivity of peaks was calculated using ARC Data System software.

[14] = Human Intestine (pooled 2 subjects), BNPP 50 μM
[15] = Human Intestine (pooled 2 subjects), BNPP 500 μM

## O=S(=O)(F)Cc1ccccc1 [PMSF, phenylmethanesulphonyl fluoride]
Carboxylesterase [1]
  effect on hydrolysis of III: weak inhibition

## [F-].[Na+] [NaF, Sodium fluoride]
Plasma blood esterases; 50 mM NaF
  effect of inhibitor on hydrolysis of III in blood: prevented hydrolysis
Carboxylesterase [1]
  inhibition of hydrolysis of III: Complete inhibition

## O=C(Nc1ccnc(-c2cc(-c3c(Cl)cccc3Cl)no2)c1)C(Cl)Cl [Compound III]
[2]
  hydrolysis of III by purified enzyme: not an efficient substrate
[3]
  Cmax: increased
  bioavailability (F): increased
  circulating metabolite: significantly reduced
  plasma exposure (AUC): increased
Plasma blood esterases; absence of NaF
  stability of III in blood: rapid decrease in the levels of compound
[4]; human liver microsomes, absence or presence of NADPH
  metabolic stability in vitro of III: Rapid disappearance of the parent compound
[5]
  hydrolysis of III by purified enzyme: not an efficient substrate
Carboxylesterase [6]; Human Intestine (pooled 2 subjects) microsomes, BNPP 0 μM, substrate 1.8 μM, substrate disappearance
  Activity: 1516 pmol/min/mg
[7]
  hydrolysis of III and conversion to aniline metabolite: occurs in microsomes prepared from livers of human, monkey, dog, rabbit, rat, and mouse
Carboxylesterase [8]; Subject 1 microsomes, BNPP 0 μM, substrate 1.8 μM, substrate disappearance
  Activity: 257 pmol/min/mg
Carboxylesterase [8]; Subject 2 microsomes, BNPP 0 μM, substrate 1.8 μM, substrate disappearance
  Activity: 192 pmol/min/mg
[9]
  hydrolysis of III by purified enzyme: efficiently hydrolyzed

## O=[N+]([O-])c1ccc(OP(=O)(O)Oc2ccc([N+](=O)[O-])cc2)cc1 [BNPP, bis(p-nitrophenyl) phosphate]
[10]
  levels of parent compound in the liver: significantly increased
Carboxylesterase [11]
  IC50: 10 to 50 µM
Carboxylesterase [1]
  inhibition of hydrolysis of III: Complete inhibition
Carboxylesterase [6]; [14]
  Activity: 28%
  Inhibition: 72%
Carboxylesterase [6]; Human Intestine (pooled 2 subjects), BNPP 50 μM, hydrolysis of Compound III 1.8 μM
  Activity: 432 pmol/min/mg
Carboxylesterase [6]; [15]
  Activity: 2.6%
  Inhibition: 97%
Carboxylesterase [6]; Human Intestine (pooled 2 subjects), BNPP 500 μM, hydrolysis of Compound III 1.8 μM
  Activity: 39 pmol/min/mg
Carboxylesterase [8]; Subject 1, BNPP 50 μM
  Activity: 75%
  Inhibition: 25%
Carboxylesterase [8]; Subject 1, BNPP 50 μM, hydrolysis of Compound III 1.8 μM
  Activity: 192 pmol/min/mg
Carboxylesterase [8]; Subject 2, BNPP 50 μM
  Activity: 121%
  Inhibition: 0%
Carboxylesterase [8]; Subject 2, BNPP 50 μM, hydrolysis of Compound III 1.8 μM
  Activity: 232 pmol/min/mg

## O=C(Nc1cccc(-c2cc(-c3c(Cl)cccc3Cl)no2)c1)C(Cl)Cl [Compound II]
[12]
  stability of II in microsomes: Rapid disappearance of parent compound
[4]; human liver microsomes (FIG. 4A)
  stability of II in microsomes: Rapid disappearance of parent compound
[13]
  metabolite profile in plasma and liver: Aniline is the major product

## CCCC(C(=O)OCCN(CC)CC)(c1ccccc1)c1ccccc1 [Proadifen, proadifen]
Carboxylesterase [1]
  effect on hydrolysis of III: did not affect hydrolysis
